# Measurements published in patent US7687546B2, “Quaternary ammonium compound, process for producing the same, therapeutic agent for cerebrovascular disorder, and therapeutic agent for heart disease” (Activus Pharma Co., Ltd., priority 2004, dated 2010).
# How the values were obtained:
# [1] = tested on: guinea pigs; assay: Study of arrhythmia-inducing action in guinea pigs (without ouabain); conditions: no ouabain
# [2] = tested on: ouabain-induced arrhythmia model; assay: Ouabain-induced arrhythmia model in guinea pigs; assay type: in vivo, guinea pigs (Hartley strain); conditions: dose 3 mg/kg i.v. immediately before ouabain infusion 3 μg/0.1 ml/min
# Excerpt: After guinea pigs (Hartley strain, age 6 weeks) were anesthetized with urethane, induction electrodes were attached to the hind limbs and fore limbs, and standard 2-lead electrocardiograms were monitored with an animal electrocardiogram analysis system (ECG-01, Japan Energy). After confirming that the waveforms of the electrocardiogram and heart rate were within the normal range, an incision was made in the epidermis of the neck followed by inserting a breathing tube into the trachea and cannulating a polyethylene tube into the left external jugular vein and left common carotid artery.
# Immediately after administering a compound of the present invention dissolved in a physiological saline solution into the right external jugular vein, ouabain was continuously infused at 3 μg/0.1 ml/min through the cannulated polyethylene tube into the left external jugular vein using a syringe pump (Atom Syringe Pump 1235 (trade name), Atom Medical Corporation).
# In addition, the polyethylene tube cannulated in the left common carotid artery was connected to a pressure transducer (P23XL, Gould Electronics), and fed to a pressure processor signal conditioner (TA-11, Gould Electronics) to record blood pressure and heart rate on a thermal plate recorder.
# The results were assessed by comparing the dose (μg/kg) of ouabain administered until the appearance of arrhythmia and occurrence of cardiac arrest (arrhythmia is not induced even if a large dose of ouabain is administered if antiarrhythmic effects are high). Furthermore, a solvent dose group (administered only physiological saline in an amount equal to that of the test drug groups), and a positive control group administered a typical antiarrhythmic disopyramide phosphate (physiological saline solution), were also provided.
# [3] = dose 3.9 mg/kg, up to 1 hour after administration
compound,measurement,setting,value
"CC(C)N(CCC(C(N)=O)(c1ccccc1)c1ccccn1)C(C)C (stereo not drawn) [Disopyramide phosphate, disopyramide phosphate, reference compound]",Occurrence of Arrhythmia,[1]; [3],No
same,Occurrence of cardiac arrest,[1]; [3],No
same,Occurrence of cardiac arrest,[1]; dose 12.9 mg/kg (10 mg/kg as disopyramide),Yes
same,Occurrence of cardiac arrest,"[1]; dose 12.9 mg/kg (10 mg/kg as disopyramide), listed as disopyramide phosphate",cardiac arrest occurred immediately after administration
same,Ouabain (μg/kg) administered until Cardiac arrest,[2],247 µg/kg
same,Ouabain (μg/kg) administered until appearance of Arrhythmia,[2],175 µg/kg
